Experiments:
human AKT1 = human AKT1 (Homo sapiens (Human), UniProt P31749); test: AKT1 kinase activity inhibition (TR-FRET, biotinylated Crosstide substrate); type: biochemical; conditions: preincubation 120 min at 25° C.; ATP 150 μM; Crosstide 500 nM
Procedure: (§1) Preparation of AKT1 and AKT2 and measurement of in vitro inhibitory activity of the above-mentioned compounds against AKT1 and AKT2 kinase activity were carried out with reference to the method disclosed in Biochem. J. Vol. 385, pp 399-408 (2005). In the preparation of AKT1 and AKT2, human AKT1 and AKT2 to which a middle T antigen tag was added were expressed in Sf 9 insect cells, and then AKT1 and AKT2 were prepared following affinity purification and activation by PDK1. The prepared AKT1 and AKT2 were stored at −80° C. until the time of measurement of inhibitory activity of the compounds. In the measurement of inhibitory activity of the compounds, AKT1 or AKT2 and each compound of the present invention were preincubated at 25° C. for 120 minutes in a buffer solution for reaction (15 mM Tris-HCl pH 7.5, 0.01% Tween-20, 2 mM DTT). As a substrate, biotinylated Crosstide (bioton-KGSGSGRPRTSSFAEG), MgCl2, and ATP were added to final concentrations of 500 nM, 10 mM, and 150 μM, respectively, and reactions were carried out at 25° C. for 60 minutes. The reactions were stopped by adding EDTA to a final concentration of 80 mM. Then, a detection liquid in which an Eu-labeled anti-phosphorylation Crosstide antibody (PerkinElmer) and SureLight APC-SA (PerkinElmer) were contained at a final concentration of 0.5 nM and […], respectively, was added, and reactions were carried out at room temperature for 2 hours. Finally, the amount of fluorescence at the time of irradiation of excitation light having a wavelength of 337 nm was measured at dual wavelengths of 620 nm and 665 nm by PHERAstar FS (BMG LABTECH). The amount of phosphorylation was determined from the ratio of the fluorescence amounts at the dual wavelengths. The compound concentration at which phosphorylation can be inhibited by 50% was defined as […] (nM), and the results are shown in Table 4 below.

human AKT2 = human AKT2 (Homo sapiens (Human), UniProt P31751); test: AKT2 kinase activity inhibition (TR-FRET, biotinylated Crosstide substrate); type: biochemical; conditions: preincubation 120 min at 25° C.; ATP 150 μM; Crosstide 500 nM
Chain of human AKT2 (P31751 whole entry): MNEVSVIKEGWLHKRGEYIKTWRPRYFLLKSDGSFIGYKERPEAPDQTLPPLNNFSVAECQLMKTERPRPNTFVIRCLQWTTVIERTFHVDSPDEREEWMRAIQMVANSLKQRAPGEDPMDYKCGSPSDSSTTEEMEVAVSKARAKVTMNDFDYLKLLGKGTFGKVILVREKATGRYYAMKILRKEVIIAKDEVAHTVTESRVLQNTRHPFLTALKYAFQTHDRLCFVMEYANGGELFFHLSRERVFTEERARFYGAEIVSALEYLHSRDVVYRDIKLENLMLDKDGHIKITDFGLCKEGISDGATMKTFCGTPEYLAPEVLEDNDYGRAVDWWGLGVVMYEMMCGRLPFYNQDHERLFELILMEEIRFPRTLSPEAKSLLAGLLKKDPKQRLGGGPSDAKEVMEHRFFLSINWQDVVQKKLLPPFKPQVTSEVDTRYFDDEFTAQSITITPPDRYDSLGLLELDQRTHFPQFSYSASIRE
Procedure: as §1

[1] = tested on: AKT Ser473 phosphorylation; test: Phosphorylated AKT (Ser473) inhibitory activity in cultured cell A2780 (Meso Scale Discovery assay); type: cell-based; conditions: A2780 cells, 3 hours treatment; average±standard deviation of three independent runs
Procedure: (§2) To evaluate the inhibitory activity of the above compounds against AKT activity, AKT Ser 473 phosphorylation and phosphorylation of S6 ribosomal protein (S6RP) (a downstream factor of Akt signal) at Ser240/Ser244, which serve as indices for the activation status of AKT, were measured in extracts of cultured cells which had been treated with the above compounds. For the measurement, assays (manufactured by Meso Scale Discovery) utilizing electrochemiluminescence based on the ELISA principle were used for both AKT Ser473 and S6RP Ser240/Ser244.
(§3) In 10% FBS-containing RPMI1640 medium (Invitrogen), ovarian cancer-derived A2780 cells in the logarithmic growth phase were seeded at 4.5×10^4 cells/150 μL/well into polylysine coated 96-well flat-bottom plates, and cultured for one day in an incubator at 5% CO2, 37° C., and 100% humidity.
(§4) Each compound of the present invention was supplied as a stock solution prepared at a concentration of 10 mM in DMSO. Using this solution, a dilution series was prepared in DMSO solvent at 200-fold of the final concentrations (10, 3, 1, 0.3, 0.1, 0.03, 0.01, 0.003 μM). The day after the cells were seeded, the compound dilution series at a 200-fold concentration was diluted 50-fold in medium for cell culture. To each well of the aforementioned A2780 cell culture plates, 50 μL of the diluted compound dilution series was added. The plates were then placed back in the incubator, and the culture was continued for 3 hours at 5% CO2, 37° C., and 100% humidity.
(§5) Meso Scale Discovery's 96-Well Multi-Spot Phospho-AKT (Ser473) Assay (K151CAA-3) and Phospho (Ser240/244)/Total S6RP Assay (K11139D-2) were used. In advance, a necessary amount of the supplied cell extract buffer was dispensed, and protease inhibitor cocktail and protein phosphatase inhibitor cocktail were added thereto, and kept cold on ice. The culture plates of the cells cultured with the compounds for 3 hours were taken out and the medium was removed. 100 μL of the cell extract buffer kept cold was added per well, followed by extraction by shaking at 300 r.p.m. for 1 hour using a plate shaker while maintaining a temperature of 4° C. Using the obtained extracts at 40 μL/well for the Phospho-AKT (Ser473) Assay and at 15 μL/well for the Phospho(Ser240/244)/Total S6RP Assay, reactions were conducted at 4° C. overnight with shaking at 300 r.p.m. according to the document attached to the kits. The next day, after the wells were washed three times with the supplied wash buffer, 50 μL/well of SULFO-TAG™ sandwich antibody solution was added, and reactions were carried out at room temperature for 1 hour. The wells were washed with the wash buffer three times, and 150 μL of the supplied Read Buffer T was added to each well. The amounts of phosphorylation of AKT and S6RP were measured by a SECTOR Imager 6000 plate reader (manufactured by Meso Scale Discovery) within 30 minutes of the Read Buffer T addition.
(§6) The extraction buffer-only background was subtracted from all of the measurement values, and AKT and S6RP phosphorylation signals in the control cell extract treated with only DMSO were defined as 100%. The compound concentrations and the levels of phosphorylated AKT and S6PR (expressed as a percentage relative to the control) in each concentration were plotted, and IC50 concentration (nM) that achieves 50% inhibition of the control was determined.

[2] = tested on: S6 ribosomal protein (S6RP) Ser240/Ser244 phosphorylation; test: Phosphorylated S6RP (Ser240/Ser244) inhibitory activity in cultured cell A2780 (Meso Scale Discovery assay); type: cell-based; conditions: A2780 cells, 3 hours treatment; average±standard deviation of three independent runs
Procedure: as §2, §3, §4, §5, §6

Chain of human AKT1 (P31749 whole entry): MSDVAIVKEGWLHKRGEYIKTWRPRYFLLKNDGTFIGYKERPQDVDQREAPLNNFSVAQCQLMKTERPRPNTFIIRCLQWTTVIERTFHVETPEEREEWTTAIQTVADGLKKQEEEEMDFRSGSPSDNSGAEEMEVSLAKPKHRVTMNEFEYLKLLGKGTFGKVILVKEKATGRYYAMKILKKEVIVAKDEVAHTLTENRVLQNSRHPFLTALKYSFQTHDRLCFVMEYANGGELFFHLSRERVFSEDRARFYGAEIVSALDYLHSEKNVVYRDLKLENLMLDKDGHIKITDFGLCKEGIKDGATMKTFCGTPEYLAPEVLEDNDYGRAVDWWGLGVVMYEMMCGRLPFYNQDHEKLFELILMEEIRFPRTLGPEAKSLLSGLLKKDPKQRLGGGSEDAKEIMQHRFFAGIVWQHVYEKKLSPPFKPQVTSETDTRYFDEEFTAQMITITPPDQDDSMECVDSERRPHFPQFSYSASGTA

Work on `N[C@]1(c2ccc(-c3nc4n(c3-c3ccccc3)COc3cccc(F)c3-4)cc2)C[C@](O)(C2CC2)C1` [Example 1, trans-3-amino-1-cyclopropyl-3-(4-(10-fluoro-3-phenyl-5H-benzo[e]imidazo[1,2-c][1,3]oxazin-2-yl)phenyl)cyclobutanol] yielded an IC50 (human AKT1) of 3.7 nM, an IC50 (human AKT2) of 0.29 nM and an IC50 [1] of 24 ± 1 nM. It also gave an IC50 [2] of 40 ± 13 nM.

With `N[C@]1(c2ccc(-c3nc4n(c3-c3ccncc3)COc3cccc(F)c3-4)cc2)C[C@](O)(C2CC2)C1` [Example 5, trans-3-amino-1-cyclopropyl-3-(4-(10-fluoro-3-(pyridin-4-yl)-5H-benzo[e]imidazo[1,2-c][1,3]oxazin-2-yl)phenyl)cyclobutanol] the IC50 (human AKT1) was 22 nM, the IC50 (human AKT2) was 0.91 nM and the IC50 [1] was 85 ± 24 nM. For the same molecule, the IC50 [2] was 232 ± 53 nM.

`N[C@]1(c2ccc(-c3nc4n(c3-c3ccccc3)COc3ccccc3-4)cc2)C[C@](O)(C2CC2)C1` [Example 11, trans-3-amino-1-cyclopropyl-3-(4-(3-phenyl-5H-benzo[e]imidazo[1,2-c][1,3]oxazin-2-yl)phenyl)cyclobutanol] was tested, and the IC50 (human AKT1) was 3.9 nM, the IC50 (human AKT2) was 1 nM and the IC50 [1] was 63 ± 15 nM. For the same molecule, the IC50 [2] was 83 ± 27 nM.

Work on `COc1cccc2c1-c1nc(-c3ccc([C@]4(N)C[C@@](O)(C5CC5)C4)cc3)c(-c3ccccc3)n1CO2` [Example 16, trans-3-amino-1-cyclopropyl-3-(4-(10-methoxy-3-phenyl-5H-benzo[e]imidazo[1,2-c][1,3]oxazin-2-yl)phenyl)cyclobutanol] yielded an IC50 (human AKT1) of 4.8 nM, an IC50 (human AKT2) of 0.35 nM and an IC50 [1] of 31 ± 5 nM. The IC50 [2] was 38 ± 7 nM.

`COc1ccc2c(c1)-c1nc(-c3ccc([C@]4(N)C[C@@](O)(C5CC5)C4)cc3)c(-c3ccccc3)n1CO2` [Example 17, trans-3-amino-1-cyclopropyl-3-(4-(9-methoxy-3-phenyl-5H-benzo[e]imidazo[1,2-c][1,3]oxazin-2-yl)phenyl)cyclobutanol] was tested, and the IC50 (human AKT1) was 1.8 nM, the IC50 (human AKT2) was 5.1 nM and the IC50 [1] was 33 ± 6 nM. The IC50 [2] was 37 ± 7 nM.

With `COc1ccc2c(c1)OCn1c-2nc(-c2ccc([C@]3(N)C[C@@](O)(C4CC4)C3)cc2)c1-c1ccccc1` [Example 18, trans-3-amino-1-cyclopropyl-3-(4-(8-methoxy-3-phenyl-5H-benzo[e]imidazo[1,2-c][1,3]oxazin-2-yl)phenyl)cyclobutanol] the IC50 (human AKT1) was 3.7 nM, the IC50 (human AKT2) was 0.6 nM and the IC50 [1] was 52 ± 6 nM. The IC50 [2] was 58 ± 10 nM.

`N[C@]1(c2ccc(-c3nc4n(c3-c3ccccc3)COc3cccnc3-4)cc2)C[C@](O)(C2CC2)C1` [Example 27, trans-3-amino-1-cyclopropyl-3-(4-(3-phenyl-5H-imidazo[1,2-c]pyrido[2,3-e][1,3]oxazin-2-yl)phenyl)cyclobutanol] was tested, and the IC50 (human AKT1) was 11 nM, the IC50 (human AKT2) was 1.6 nM and the IC50 [1] was 66 ± 10 nM. The IC50 [2] was 100 ± 17 nM.

Molecule `C[C@]1(O)C[C@@](N)(c2ccc(-c3nc4n(c3-c3ccccc3)COc3cccnc3-4)cc2)C1` [Example 28, trans-3-amino-1-methyl-3-(4-(3-phenyl-5H-imidazo[1,2-c]pyrido[2,3-e][1,3]oxazin-2-yl)phenyl)cyclobutanol] has an IC50 (human AKT1) of 11 nM, an IC50 (human AKT2) of 2 nM and an IC50 [1] of 81 ± 9 nM. For the same molecule, the IC50 [2] was 131 ± 28 nM.

Molecule `CC[C@]1(O)C[C@@](N)(c2ccc(-c3nc4n(c3-c3ccccc3)COc3cccnc3-4)cc2)C1` [Example 30, trans-3-amino-1-ethyl-3-(4-(3-phenyl-5H-imidazo[1,2-c]pyrido[2,3-e][1,3]oxazin-2-yl)phenyl)cyclobutanol] has an IC50 (human AKT1) of 33 nM, an IC50 (human AKT2) of 4.6 nM and an IC50 [1] of 104 ± 27 nM. It also gave an IC50 [2] of 174 ± 47 nM.

With `N[C@]1(c2ccc(-c3nc4n(c3-c3ccccc3)COc3ccncc3-4)cc2)C[C@](O)(C2CC2)C1` [Example 31, trans-3-amino-1-cyclopropyl-3-(4-(3-phenyl-5H-imidazo[1,2-c]pyrido[3,4-e][1,3]oxazin-2-yl)phenyl)cyclobutanol] the IC50 (human AKT1) was 4.2 nM, the IC50 (human AKT2) was 0.78 nM and the IC50 [1] was 30 ± 5 nM. For the same molecule, the IC50 [2] was 51 ± 7 nM.

Work on `CC1(O)CC(N)(c2ccc(-c3nc4n(c3-c3ccccc3)COc3ccncc3-4)cc2)C1` (stereo not drawn) [Example 32, trans-3-amino-1-methyl-3-(4-(3-phenyl-5H-imidazo[1,2-c]pyrido[3,4-e][1,3]oxazin-2-yl)phenyl)cyclobutanol] yielded an IC50 (human AKT1) of 6.6 nM, an IC50 (human AKT2) of 1.1 nM and an IC50 [1] of 40 ± 3 nM. The IC50 [2] was 62 ± 23 nM.

With `N[C@]1(c2ccc(-c3nc4n(c3-c3ccccc3)COc3cnccc3-4)cc2)C[C@](O)(C2CC2)C1` [Example 35, trans-3-amino-1-cyclopropyl-3-(4-(3-phenyl-5H-imidazo[1,2-c]pyrido[4,3-e][1,3]oxazin-2-yl)phenyl)cyclobutanol] the IC50 (human AKT1) was 1.6 nM, the IC50 (human AKT2) was 0.48 nM and the IC50 [1] was 24 ± 3 nM. For the same molecule, the IC50 [2] was 33 ± 8 nM.

In the case of `C[C@]1(O)C[C@@](N)(c2ccc(-c3nc4n(c3-c3ccccc3)COc3cnccc3-4)cc2)C1` [Example 36, trans-3-amino-1-methyl-3-(4-(3-phenyl-5H-imidazo[1,2-c]pyrido[4,3-e][1,3]oxazin-2-yl)phenyl)cyclobutanol], the IC50 (human AKT1) is reported as 2 nM, the IC50 (human AKT2) is reported as 0.74 nM and the IC50 [1] is reported as 32 ± 6 nM. For the same molecule, the IC50 [2] was 36 ± 3 nM.

With `N[C@]1(c2ccc(-c3nc4n(c3-c3ccccc3)COc3ncccc3-4)cc2)C[C@](O)(C2CC2)C1` [Example 38, trans-3-amino-1-cyclopropyl-3-(4-(3-phenyl-5H-imidazo[1,2-c]pyrido[3,2-e][1,3]oxazin-2-yl)phenyl)cyclobutanol] the IC50 (human AKT1) was 1.4 nM, the IC50 (human AKT2) was 0.91 nM and the IC50 [1] was 23 ± 4 nM. The IC50 [2] was 34 ± 6 nM.

For `NC1(c2ccc(-c3nc4n(c3-c3ccccc3)COc3nccnc3-4)cc2)CC(O)(C2CC2)C1` (stereo not drawn) [Example 41, trans-3-amino-1-cyclopropyl-3-(4-(3-phenyl-5H-imidazo[1,2-c]pyrazino[2,3-e][1,3]oxazin-2-yl)phenyl)cyclobutanol], the IC50 (human AKT1) was 5.4 nM, the IC50 (human AKT2) was 3.3 nM and the IC50 [1] was 70 ± 16 nM. For the same molecule, the IC50 [2] was 100 ± 34 nM.

`C[C@]1(O)C[C@@](N)(c2ccc(-c3nc4n(c3-c3ccccc3)COc3ccc(CO)cc3-4)cc2)C1` [Example 44, trans-3-amino-3-(4-(9-(hydroxymethyl)-3-phenyl-5H-benzo[e]imidazo[1,2-c][1,3]oxazin-2-yl)phenyl)-1-methylcyclobutanol] was tested, and the IC50 (human AKT1) was 2.2 nM, the IC50 (human AKT2) was 0.55 nM and the IC50 [1] was 33 ± 7 nM. For the same molecule, the IC50 [2] was 46 ± 17 nM.

From patent US8772283B2, “Imidazo-oxazine compound or salt thereof” (Taiho Pharmaceutical Co., Ltd., priority 2011, dated 2014)
